# Legend:
# [1] = tested on: kidney inflammation, ED-1 reactivity (macrophage activation); assay: Acute kidney injury model (stab wound plus cautery), ED-1 immunohistochemistry; type: in vivo, Sprague-Dawley rat; conditions: rat kidney, 3% solution of EARA-16 or 1% solution of KS
# Method: The anti-inflammatory effects of EARA-16 (SEQ ID NO: 89) and a RADA-kidney specific peptide conjugate (Ac-(RADA)3CVSVPQAL-CONH2; SEQ ID NO: 413; referred to as KS) were examined. Specifically, the effects of EARA-16 and KS on inflammation caused by burn damage were examined using an acute kidney injury model. Levels of inflammation were assayed through immuno-histochemical ED-1 reactivity (ED-1 serves as a marker of macrophage activation).
# Adult Sprague-Dawley rats were anesthetized and their intraperitoneal cavities were opened under aseptic conditions. For each animal, the kidney was exposed and then subjected to a stab wound injury.
# Cautery was then performed at the injury site to stop bleeding. After cauterization, the injury site was either left untreated and the animals were closed or the site was treated with a 3% solution of EARA-16 (SEQ ID NO: 89) or a 1% solution of KS (SEQ ID NO: 413). The animals were allowed to survive for up to 14 days. The animals were then sacrificed and their kidneys were harvested and sectioned. An ED-1 antibody was used to determine the level of inflammation and activation of macrophages in the kidney via immunohistochemistry (IHC). For each experimental condition, n=3 (max).
# Animals receiving no injury, but in which saline was applied to the kidney in a similar location to that of the experimental animals, were used as controls (n=8).
# [2] = tested on: liver inflammation, ED-1 reactivity (macrophage activation); assay: Pig liver injury model (punch biopsy), ED-1 immunohistochemistry; type: in vivo; conditions: 8 mm punch biopsy, day 7 post-treatment, compared to saline or cauterization controls
# Method: (§1) The anti-inflammatory effects of EARA-16 (SEQ ID NO: 89) and RADA-16 (SEQ ID NO: 1) SAPs were examined using a liver injury model. Levels of inflammation were assayed through immuno-histochemical ED-1 reactivity (ED-1 serves as a marker of macrophage activation).
# (§2) Pigs or adult Sprague-Dawley rats were anesthetized and their intraperitoneal cavities were opened under aseptic conditions. For each animal, the liver was exposed and then subjected to an 8 mm (pig) or 4 mm (rat) punch biopsy.
# (§3) The punch sites were then cauterized or treated with acid (for pH control), saline, or RADA-16 (SEQ ID NO: 1) or EARA-16 (SEQ ID NO: 89) solutions. The animals were allowed to survive for up to 14 days. The animals were then sacrificed and their livers were harvested and sectioned. An ED-1 antibody was used to determine the level of inflammation and activation of macrophages in the liver via immunohistochemistry (IHC).
# [3] = tested on: liver inflammation, ED-1 reactivity (macrophage activation); assay: Rat liver injury model (punch biopsy), ED-1 immunohistochemistry; type: in vivo, Sprague-Dawley rat; conditions: 4 mm punch biopsy, all time-points observed, compared to saline or acid controls
# Method: as §1, §2, §3
# [4] = tested on: olfactory bulb inflammation, GFAP (reactive astrocytes); assay: Olfactory bulb injury model (transection), GFAP immunohistochemistry; type: in vivo, Sprague-Dawley rat; conditions: rat olfactory bulb, days 2-14
# Method: The anti-inflammatory effects of EARA-16 (SEQ ID NO: 89) and RADA-16 (SEQ ID NO: 1) were examined using an olfactory bulb injury model. Levels of inflammation were assayed through immunohistochemical staining for glial fibrillary acidic protein (GFAP) as an indicator of reactive astrocytes.
# In brief, the olfactory bulbs of adult Sprague-Dawley rats were unilaterally transected and the cuts were then treated with either saline as a control, or one of RADA-16 (SEQ ID NO: 1) or EARA-16 (SEQ ID NO: 89) solutions (each used at 1% and 3%). The SAP materials were injected into the cuts post transection at the time of surgery. After 2, 7 or 14 days, the animals were sacrificed.
# A more detailed protocol is as follows: adult Sprague-Dawley rats were anesthetized with a mixture of ketamine (80 mg/kg, i. p.) and xylazine (8 mg/kg, i. p.). The head was shaved and a thorough disinfection of the head surface was carried out with iodine 5% solution. The bilateral olfactory bulbs were exposed by drilling two burr holes (2 mm diameter, 8 mm anterior to the bregma) on either side at a distance of 2 mm from the midline of the frontal bone in the region overlying the olfactory bulbs. A cataract knife with a blunted end and one sharpened edge was used for surgery. The cut was performed on the middle of olfactory bulb. The blunted edge of the knife was inserted along the middle line of the olfactory bulb to prevent damage of the sagittal sinus, until the tip of the knife lightly touched the bottom of the brain without penetration of the dura. The knife was then moved laterally to transect the bulb until it reached the lateral edge of the hole. The knife was then rotated and pulled out to have a complete cut of the bulb at lateral side. This procedure was modified from the method described in several previous studies attempting to isolate the olfactory bulb from other parts of the brain (Ahrens & Freeman 2001; Allison 1953; Chaput 1983; Freeman 1968; Koliatsos et al 2004; Munirathinam et al 1997).
# After performing the cut, one of the solutions was used to treat the injury site: either 10 μl saline (control group) or the EARA-16 (SEQ ID NO: 89) or RADA-16 (SEQ ID NO: 1) SAP (at a concentration of 1% and 3%) was injected evenly into the wound site using a self-constructed hydraulic pressure injection system without micro syringe. This technique was modified from similar methods as described by Bullier and others (Bullier et al 1980; Fish & Rhoades 1981; Kratskin et al 1997; Meyers & Snow 1981; Price et al 1977; Shipley 1982). Care was taken to control the speed of the injection of the saline or the SAP. After the injection, the wound was closed and the animals were placed in a warm place for recovery before they were brought back to their home cages. […]
Substance,reduction in inflammation compared to cautery only (ED-1 IHC) ([1]; 7-day survival) [%],reduction in inflammation compared to cautery only (ED-1 IHC) ([1]; 14-day survival) [%],levels of inflammation in liver (ED-1 IHC) [2],levels of inflammation in liver (ED-1 IHC) [3],time course of reactive astrocyte activation / inflammation (GFAP) ([4]; 1% solution),time course of reactive astrocyte activation / inflammation (GFAP) ([4]; 3% solution)
"Ac-(RADA)3CVSVPQAL-CONH2 (Ac-RADARADARADACVSVPQAL-NH2) [KS, RADA-kidney specific peptide conjugate]",68,66,–,–,–,–
"EARAEARAEARAEARA [EARA-16, self-assembling peptide]",80,66,markedly reduced the levels of inflammation,markedly reduced the levels of inflammation,increased activation of reactive astrocytes on day 7 which subsequently reduced by day 14,"increasing inflammation levels, but at a much slower rate than the saline controls"
